Data published in patent publication US20060205938A1, “Monohydrate solvates of loracarbef” (priority 2002, published 2006).

Experiments:
[1] = fine, fluffy powder obtained by the process disclosed in EP 0,369,686; cited from earlier work
[2] = Bulk density of crystalline loracarbef monohydrate; type: physicochemical

N[C@@H](C(=O)N[C@@H]1C(=O)N2C(C(=O)O)=C(Cl)CC[C@H]12)c1ccccc1.O [crystalline loracarbef monohydrate, (6R,7S)-7-[(R)-2-amino-2-phenylacetamido]-3-chloro-8-oxo-1-azabicyclo [4.2.0]oct-2-ene-carboxylic acid, monohydrate]
density [1]: approximately 0.2 g/ml | bulk density ([2]; crystalline monohydrate prepared from mono N,N-dimethylacetamide monohydrate solvate (Example 2)): greater than 0.6 g/ml | bulk density ([2]; crystalline monohydrate prepared from mono N-methyl pyrrolidone monohydrate solvate (Example 4)): greater than 0.6 g/ml | bulk density ([2]; monohydrate prepared from mono N,N-dimethylacetamide monohydrate solvate or mono N-methylpyrrolidone monohydrate solvate): ≥ 0.6 g/mL
